Data on four sequences can be found in patent US11814416B2, “Polypeptide capable of passing through blood-brain barrier” (SHENZHEN RUIJIAN […] COMPANY, priority 2018, dated 2023).

For the assay, the system named is CaV2.2 channels (α1B, α2δ1 and β3). Format: cell-based, Rat. Conditions: for IC50: read-out: half inhibitory concentration for inhibition of CaV2.2 channel.

Like-named read-outs stand apart in the source and are kept apart here.

In the case of “CKGKGAKCSRLMYDCCTGSCRSGKCGGYGRKKRRQRRR [MVIIA-c]”, the IC50 is 237 nM. For the same sequence, the “reduction of the peak Ca2+ current” value (1 μM) turned out to be 98.81±0.427%.

For the sequence “CKGKGAKCSRLMYDCCTGSCRSGKCGGGYGRKKRRQRRR [MVIIA-d]”, the IC50 was 345 nM. Besides, the “reduction of the peak Ca2+ current” value (1 μM) turned out to be 84.26±3.127%.

For “CKGKGAKCSRLMYDCCTGSCRSGKCGYGRKKRRQRRR [MVIIA-b]”, the “reduction of the peak Ca2+ current” value worked out at 91.70±1.477% and the IC50 worked out at 379 nM.

As to “CKGKGAKCSRLMYDCCTGSCRSGKCYGRKKRRQRRR [MVIIA-a]”, the IC50 was 413 nM. The “reduction of the peak Ca2+ current” value (1 μM) is 89.45±0.752%.
